Results from paper PMC12047801, “Disrupting the OTUD4-USP7 deubiquitinase complex to suppress herpesvirus replication: a novel antiviral strategy” (PLOS Pathogens, 2025).

Test system: KSHV genome replication in BCBL-1 cells
Experiment: Relative viral genomic copy number (latency) by qPCR in BCBL-1 cells
Type: cell-based
Settings: Fig. S1F, 100 μM, 48 h

Ac-YGRKKRRQRRRGGVNQSASQSSN-NH2 [p8]
Relative viral genomic copy number (replicate 1): 1.16 | Relative viral genomic copy number (replicate 2): 1.11 | Relative viral genomic copy number (replicate 3): 0.96
